Measurements published in patent publication US20220362279A1, “USE OF OLIGONUCLEOTIDES FOR THE TREATMENT AND PREVENTION OF PAIN” (CONSEJO NACIONAL DE INVESTIGACIONES CIENTÍFICAS Y TÉCNICAS, priority 2018, published 2022).
Entries after “also recorded” stand apart in the source; their conditions may differ. Strand notation (5' to 3'): a small letter for the sugar, then the base; units joined by * are phosphorothioate-linked, units joined directly phosphodiester-linked; [ ] holds rarer units or linkages, { } end groups; capitals alone tell only the bases. d = 2'-deoxy (DNA)

Assays:
Format in all cases: in vivo, rat
[1] = system: rats with hind paw inflammation (CFA rats); assay: Mechanical allodynia (von Frey, 50% withdrawal threshold) in rats with CFA-induced hind paw inflammation
Method: (§1) In fifty-two rats anesthetized with Isoflurane (5% induction, 2.5% maintenance, 0.8 L/min O2 flow rate; Piramal Healthcare, UK), the right hind paw was injected intra-dermally with 100 μl of CFA (1:1, dissolved in normal saline; Sigma-Aldrich, Mo., USA), using a 1 ml syringe with a 25G needle attached. The animals (from now on, called CFA rats) were left to recover from anesthesia in a warm and quiet environment before relocating them in their corresponding cages.
(§2) In one set of experiments, called “preventive treatment”, four rats received a daily dose of 20 mg/kg IMT504 for five consecutive days and four weeks later one dose of 6 mg/kg (group a); a second group of four rats received one dose of 6mg/kg of IMT504 (group b) (FIG. 1A). Three days after the single injection of 6 mg/kg IMT504, all eight rats received intra-plantar CFA, after which they were tested for mechanical and cold allodynia during 21 days. At day 28, group b received an additional administration of IMT504 at a dose of 3 mg/kg and was evaluated until day 35.
In a second set of experiments, groups of rats were allocated to early or late treatment protocols (ET and LT, respectively), using a daily dose of 20 mg/kg IMT504 for five consecutive days (FIG. 2A). The ET protocol (n=5) was performed immediately after the intradermal injection of CFA in the hind paw; the LT protocol (n=5) was initiated seven days after the induction of hind paw inflammation (FIG. 2A). In all cases, animals where tested for pain-like behavior during four weeks after the induction of hind paw inflammation (days 1, 3, 7; weeks 2, 3 and 4).
In a third set of experiments, different concentrations and dosages of IMT504 were administered subcutaneously using the LT protocol (FIG. 3A). Rats were separated in three groups (n=5 per group) and treated as follows: i) a daily dose of 0.2 mg/kg of IMT504 for five consecutive days, ii) a daily dose of 2 mg/kg of IMT504 for five consecutive days, and iii) a daily dose of 2 mg/kg of IMT504 for three consecutive days. All these groups were tested for pain-like behavior up to seven weeks after induction of the hind paw inflammation.
(§3) Naïve (uninjured and untreated; n=16), CFA injured untreated (n=10), and vehicle-treated CFA (n=9) or SNI rats (n=10) were used as controls. Eight naïve rats remained untreated, four were vehicle-treated, and four received a daily dose of 20 mg/kg IMT504 for five consecutive days. Untreated CFA rats received an intradermal hind paw injection of CFA and no further treatment. Vehicle-treated CFA rats received five daily subcutaneous injections of saline (200 μl), starting seven days after injury. Vehicle-treated SNI rats received one single dose of saline (200 ul), starting seven days after injury.
(§4) For mechanical allodynia assessment, a set of von Frey filaments (Stoelting, Ill., USA) and the modified up-down method of Dixon were used, as described by Chaplan et al. (Chaplan S R, et, al., (1994) J. Neurosci Methods 53: 55-632) to establish the 50% withdrawal threshold. A withdrawal threshold of 6 g or less was considered an allodynic response.
as §1, with “seventeen” for “fifty-two”, “Scott-Cassara, Argentina),” for “Piramal Healthcare, UK),”, “MO,” for “Mo.,”, “needle.” for “needle attached.”, “(called” for “(from now on, called”, “relocating” for “relocating them”
Eight rats received a dose of 6 mg/kg IMT504 (FIGS. 2 and 3). Three days after the single injection of 6 mg/kg IMT504, all rats received intra-plantar complete Freund's Adjuvant (CFA), after which they were tested for mechanical and cold allodynia during 21-35 days. On day 28 (FIG. 1) or 28 (FIG. 2), rats receiving preventive IMT504 were administered additional IMT504 at a dose of 3 mg/kg (FIG. 1) or 2 mg/kg (FIG. 2), and assessed until days 21-35. […]

[2] = system: rats with hind paw inflammation (CFA rats); assay: Cold allodynia (acetone drop) in rats with CFA-induced hind paw inflammation
Method: as §1, §2
For cold allodynia assessment, the reaction to the application of a drop of acetone onto the plantar surface of the hind paw was used. Both frequency of withdrawal and cold score (pain-like behavior intensity) were measured. […]

naïve rats = assay: Hind paw mechanical withdrawal threshold in naïve rats; conditions: 20 mg/kg daily x5; observed up to 22 days; vs saline-treated naïve rats
Method: as §3, §4

[3] = system: rats with post-incisional pain; assay: Cold allodynia in rats with post-incisional pain (plantar incision); conditions: 6 mg/kg s.c. 48 h and 24 h before incision; particularly apparent 3 days after injury
Excerpt: In twenty-four rats anesthetized with Isoflurane (5% induction, 2.5% maintenance, 0.8 L/min O2 flow rate; Scott-Cassara, Argentina), the right hind paw plantar skin was cleaned and disinfected. This was followed by a 1-cm longitudinal incision distal to heel and extending towards the toes, as previously described (Xu J, et al., 2011, 24(5): 508-514). The incision involved both plantar skin and fascia. This was followed by identification and longitudinal incision of plantar […] muscle, leaving its insertions intact. After achieving homeostasica, skin was sutured using a 5-0 nylon suture, protected with an antibacterial cream and the animal was returned to its retention cage, under observation, until full recovery from anesthesia.
Rats were subcutaneously administered 6 mg/kg of IMT504, 48 and 24 h before implementing the post-incisional pain model. This was followed by pain-like behavior testing for up to 21 days after injury.
For cold allodynia assessment, the reaction to the application of a drop of acetone onto the plantar surface of the hind paw was used, as previously described. Frequency of withdrawal to cold stimuli was measured.

[4] = 6 mg/kg 3 days before CFA (FIG. 6, FIG. 8)
[5] = 6 mg/kg 3 days before CFA (FIG. 7)
[6] = 6 mg/kg 3 days before CFA, booster 3 mg/kg day 28
[7] = 20 mg/kg daily x5 plus single 6 mg/kg three days before CFA

Substance: IMT504: synthetic phosphorothioate oligodeoxynucleotide with sequence 5′-TCATCATTTTGTCATTTTGTCATT-3′ (SEQ ID No 1) (DNA dT*dC*dA*dT*dC*dA*dT*dT*dT*dT*dG*dT*dC*dA*dT*dT*dT*dT*dG*dT*dC*dA*dT*dT)
- period after induction of inflammation during which IMT504 prevents mechanical allodynia [1, 4]: 7 days
- time of reaching allodynic levels comparable to vehicle-treated rats [1, 4]: 14 days after injury
- day by which mechanical withdrawal thresholds are fully comparable to injured untreated or vehicle-treated rats ([1]; 6 mg/kg 3 days before CFA, both groups (FIG. 10A, 11A)): 21 days
- lack of mechanical allodynia until ([1]; 6 mg/kg 3 days before CFA, group with booster on day 21 (FIG. 11A)): 7 days after injury
- lack of mechanical allodynia until ([1]; 6 mg/kg 3 days before CFA, group with booster on day 28 (FIG. 10A)): 3 days after injury
- effect of a booster dose of 2 mg/kg IMT504 21 days after injury on mechanical allodynia ([1]; 6 mg/kg 3 days before CFA, booster 2 mg/kg day 21 (FIG. 11A)): completely restored the anti-allodynic effect
- effect of an additional dose of 3 mg/kg IMT504 28 days after injury on mechanical allodynia ([1]; 6 mg/kg 3 days before CFA, booster 3 mg/kg day 28, observed one day after re-administration): quickly reverted; also recorded: complete reduction in mechanical and cold allodynia; also recorded: full recovery of basal withdrawal thresholds; also recorded: completely restored the anti-allodynic effect
- recovery of basal mechanical withdrawal thresholds, ET protocol ([1]; 20 mg/kg daily x5, started immediately after CFA): reaching basal levels seven days after treatment initiation; also recorded: reaching basal thresholds seven days after injury and onwards
- recovery of basal mechanical withdrawal thresholds, LT protocol ([1]; 20 mg/kg daily x5, started seven days after CFA): fully achieved seven days after initiation of the treatment; also recorded: recovery of basal mechanical withdrawal thresholds starting one week after treatment (two weeks after injury)
- withdrawal thresholds of contralateral hind paws ([1]; IMT504-treated CFA rats, data not shown): remained normal; also recorded: normal basal values
- start of progressive recovery towards basal mechanical withdrawal thresholds ([1]; LT protocols (0.2 or 2 mg/kg, three or five daily doses from day 7 after CFA), s.c.): 10 day after injury
- recovery of mechanical withdrawal threshold ([1]; LT, 0.2 mg/kg daily x5, s.c., 0.2 mg/kg): slower, incomplete recovery, never reaching basal withdrawal thresholds; also recorded: not reaching the basal level
- difference to vehicle-treated CFA rats towards the end of the assay ([1]; LT, 0.2 mg/kg daily x5, p>0.05): no significant differences with the vehicle-treated CFA rats
- reaching basal ipsilateral withdrawal thresholds, counted from initiation of treatment ([1]; LT, three or five daily doses of 2 mg/kg, s.c.): reaching basal ipsilateral withdrawal thresholds at day five after initiation of the treatment and onwards
- persistence of basal withdrawal thresholds ([1]; LT, three or five daily doses of 2 mg/kg, s.c., 2 mg/kg): maintained basal withdrawal thresholds throughout the whole assay period; also recorded: maintaining such a condition throughout the entire assay (seven weeks)
- time at which mechanical withdrawal thresholds reach allodynic levels ([1]; preventive IMT504 (20 mg/kg x5 + 6 mg/kg, or 6 mg/kg only) three days before CFA, both groups): 14 days after injury
- mechanical allodynia twenty-one days after injury ([1]; preventive IMT504, both groups, comparable to untreated CFA-rats): all animals reached basal allodynic levels
- lack / prevention of mechanical allodynia after CFA-induced inflammation ([1]; preventive IMT504: 20 mg/kg daily x5 plus 6 mg/kg four weeks later, or 6 mg/kg only, CFA three days after the 6 mg/kg dose, both groups): prevention of mechanical allodynia; also recorded: lack of mechanical allodynia during the first three days
- time from which basal withdrawal thresholds are recovered ([1]; single dose of 2 mg/kg, one week after CFA): 21 days after injury
- recovery of basal withdrawal thresholds ([1]; single dose of 2 mg/kg, one week after CFA, 2 mg/kg): slower, but finally complete, recovery of basal withdrawal thresholds; also recorded: slower, incomplete recovery, never reaching basal withdrawal thresholds
- period after induction of inflammation during which IMT504 prevents cold allodynia [2, 5]: 1 days
- time of reaching cold allodynic levels comparable to vehicle-treated rats [2, 5]: 7 days after injury
- effect of an additional dose of 3 mg/kg IMT504 28 days after injury on cold allodynia [2, 6]: full anti-allodynic effect; also recorded: complete reduction in mechanical and cold allodynia
- time at which the anti-allodynic effect (cold) of the reinforcement dose is lost [2, 6]: 35 days after injury
- progression of cold allodynia [2, 7]: very slow increase in cold withdrawal frequency; also recorded: slow progression towards cold allodynia
- time of peak of cold allodynia [2, 7]: 21 days after injury
- frequency of cold allodynia ([2]; both preventive groups, twenty days after injury): 60%
- time of peak of cold allodynia ([2]; single dose of 6 mg/kg only, three days before CFA): 21 days after injury
- protection against cold allodynia ([2]; single dose of 6 mg/kg only, three days before CFA, 6 mg/kg): more moderate anti-allodynic effect; also recorded: milder protection against cold allodynia
- cold allodynia vs injured vehicle-treated rats, days 1 and 3 after injury ([2]; single preventive dose of 6 mg/kg (FIG. 11B)): significantly lower than that observed in injured vehicle-treated rats
- cold allodynia vs vehicle-treated rats, from day 7 on ([2]; single preventive dose of 6 mg/kg (FIG. 11B), differences not statistically significant): always showed lower levels of cold allodynia than vehicle-treated rats
- hind paw mechanical withdrawal threshold in naïve rats (naïve rats): did not shown changes; also recorded: did not show any evident changes
- cold allodynia after plantar incision [3]: significant reduction in cold allodynia
